Results as given in patent US20170056367A1, “PHARMACEUTICAL COMPOSITIONS FOR INHIBITING THE OSTEOCLAST DIFFERENTIATION COMPRISING EUPATILIN” (OsteoNeuroGen CO., LTD, priority 2015, published 2017).

Legend:
[1] = test system: Osteoblasts differentiated from mesenchymal stem cells; assay: ALP activity of osteoblasts differentiated from mesenchymal stem cells; assay type: cell-based, mouse; conditions: FIG. 9
Procedure: Osteoblasts differentiated from mesenchymal stem cells were measured for ALP activity in the presence of eupatilin.

[2] = test system: RANK-mediated NF-kB activation; assay: NF-kB-luciferase assay; assay type: cell-based; conditions: FIG. 3D
Procedure: Retroviral overexpression of catalytically active IKKb or Akt induced partial formation of TRP^+ osteoclasts (FIGS. 3B and 3C). An NF-kB-luciferase assay was conducted to examine whether the RANK-mediated NF-kB activation was modulated by eupatilin.

[3] = test system: mouse bone marrow cells (MBMC); assay: Cytotoxicity of eupatilin (FIG. 1D); assay type: cell-based; conditions: at the concentration (50 μM)
[4] = test system: GSK3b; assay: Osteoclast formation upon overexpression of GSK3b; assay type: cell-based; conditions: FIGS. 4A and 4B
[5] = test system: TRAP, OSCAR, Integrin av, DC-STAMP, integrin b3, and OC-STAMP; assay: Osteoclast differentiation marker gene levels by real-time PCR; assay type: cell-based, mouse; conditions: 50 μM eupatilin, MBMC differentiation, FIG. 2
Procedure: During the differentiation of MBMC into osteoclasts in the presence of 50 μM eupatilin, the levels of osteoclast differentiation marker genes were measured by real-time PCR.

[6] = test system: osteoclasts; assay: RANKL-mediated bone resorption measured using dentin; assay type: cell-based
Procedure: Effects of eupatilin on RANKL-mediated bone-resorption were measured using dentin.

[7] = test system: IkB, Akt, and GSK3b; assay: Phosphorylation of IkB, Akt and GSK3b during differentiation of MBMC into osteoclasts (gel electrophoresis); assay type: cell-based, mouse; conditions: compared to control groups, FIG. 3A
[8] = test system: mouse bone marrow cells (MBMC); assay: Differentiation of mouse bone marrow cells (MBMC) into osteoclasts with M-CSF and RANKL; assay type: cell-based
Procedure: Incubation with M-CSF (macrophage-colony stimulating factor) and RANK (receptor activator of NFκB) ligand (RANKL) induced mouse bone marrow cells (MBMC) to differentiate into osteoclasts during which eupatilin was used at various concentrations under monitoring.

[9] = test system: Ovariectomized mice (OVX); assay: Ovariectomized mice (OVX) model of menopausal osteoporosis; assay type: in vivo, mouse; conditions: 50 μM eupatilin, FIG. 8
[10] = test system: human peripheral blood mononucleated cells (PBMC); assay: Differentiation of human PBMC into osteoclasts; assay type: cell-based; conditions: 50 μM, FIG. 5
Description: Effects of eupatilin on the differentiation of human PBMC into osteoclasts were observed.

[11] = test system: LPS-induced osteoporosis mouse models; assay: LPS-induced osteoporosis model; assay type: in vivo

## COc1ccc(-c2cc(=O)c3c(O)c(OC)c(O)cc3o2)cc1OC [eupatilin, 5,7-dihydroxy-3,4,6-trimethoxyflavone]
[1]; 50 μM
  reduction of the activity of osteoblasts (ALP activity): 50%
[1]; up to 25 μM
  activity of osteoblasts (ALP activity): did not influence
[2]
  RANK-mediated NF-kB activation: inhibit
[3]
  cytotoxicity: no cytotoxicity
[4]
  MNCs in the presence of eupatilin upon overexpression of GSK3b: a significant quantity of MNCs was observed
[5]
  levels of the markers TRAP, OSCAR, Integrin av, DC-STAMP, integrin b3, and OC-STAMP: significantly reduced
[6]; dentin, FIG. 6B
  expression of Pit: reduced
[6]; osteoclasts differentiated by RANK signaling, FIG. 6A
  expression of F-actin for the formation of osteoclast actin rings: remarkably suppressed
[6]; time-dependent manner, FIG. 6
  expression of Cathepsin K: significantly decreasing
[7]
  phosphorylation levels of IkB, Akt, and GSK3b: significantly reduced
[8]; 50 μM eupatilin, M-CSF and RANKL, FIG. 1A
  osteoclast differentiation: completely suppressed
[8]; FIG. 1C
  F-actin formation in MNCs (immunofluorescence): significantly reduced
[8]; various concentrations, FIG. 1B
  formation of TRP^+ multinucleated osteoclasts (MNCs): suppressed the formation of TRP^+ multinucleated osteoclasts (MNCs) in a dose-dependent manner
[9]
  bone density loss (CT): significantly reduced
[10]
  expression of c-Fos, NFATc1, p-Akt, p-GSK3b, and p-IkB: significantly reduce
  formation of TRP^+ osteoclasts: significantly reduce
[11]; 50 μM eupatilin, LPS intraperitoneally, FIG. 7A
  LPS-induced osteoporosis (bone density by CT): significantly reduced
[11]; LPS model, bottom panel of FIG. 7
  H&E and TRAP staining: promote osteanagenesis and inhibit osteoclast differentiation
[11]; LPS or LPS+ eupatilin, FIGS. 7B to 7E
  bone density: improve bone density
